Active and inactive are the calls of the source.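 How the source made its calls: active means mean IC50, the dose halving TNF-driven NF-kB light signal, at or below a set limit; inactive means the rest.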
system: HEK-293T NF-kB-Luc, TNFa-induced, luminescence, 14 h; assay: TNFa-driven NF-kB luciferase inhibition, HEK-293T – cell-based, HEK-293T NF-kB-Luc, luminescence, hits from both screens, counter-screen for BCR/TCR NF-kB inhibitor project, dose response (AID 489020);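 further: TNF-alpha stimulus at 0.1 ng/mL added with the seeded cells; selectivity counterscreen for hits from B- and T-cell receptor NF-kB screens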

Compared with `Cc1nn(C(C)(C)C)c(C)c1/C=N/OC(=O)Nc1ccc(Cl)cc1`, `Cc1nn(-c2ccccc2)c(C)c1/C=N/NC(=O)c1cc(-c2cccs2)[nH]n1` is higher in IC50: less than 0.16 µM for the first, 3.54 µM for the second.

Going from `CC1CCc2c(sc(NC(=O)CSc3ncn[nH]3)c2C#N)C1` (configuration not stated) to `Cn1nccc1C(=O)NC1CCCc2c1cnn2-c1ccc(F)cc1F` (configuration not stated), the IC50 falls from 0.61 µM to less than 0.16 µM.

First: CN(C(=O)OC(C)(C)C)c1ccc(-c2nc3ccccc3s2)cc1
Second: COc1ccc(CNc2ncc(-c3ccc(F)cc3)n2C)c2ccccc12
The IC50 of the first is lower: less than 0.16 µM for the first, 17.8 µM for the second. The first is the more potent here.

Compared with `C[C@@H]1C[C@@H]2O[C@H]2/C=C\C=C\C(=O)Cc2c(Cl)c(O)cc(O)c2C(=O)O1`, `C=C1C(=O)O[C@@H]2C[C@@H](C)[C@@H]3C=CC(=O)[C@@]3(C)[C@@H](OC(=O)CC(=O)O[C@H]3[C@@H]4C(=C)C(=O)O[C@@H]4C[C@@H](C)[C@@H]4C=CC(=O)[C@]43C)[C@H]12` is 5.2-fold lower in IC50: 7.67 µM for the first, 1.48 µM for the second.

Compared with `CCCCCCCCCn1ccc(=N)cc1`, `CCCCCc1ccc(OCCCC[n+]2cccc(C)c2)c(CCCCC)c1` is 12-fold higher in IC50: 0.51 µM for the first, 6.07 µM for the second.

First: CCN(CC)S(=O)(=O)c1ccc(Oc2ccc(S(=O)(=O)N(CC)CC)cc2)cc1
Second: CCOc1ccc(S(=O)(=O)NCc2ccncc2)cc1
The IC50 of the first is 2.2-fold higher: 0.46 µM for the first, 0.21 µM for the second.

First: O=C1/C(=C/c2ccccc2)C[C@@]2(O)[C@H]3Cc4ccc(O)c5c4[C@@]2(CCN3CC2CC2)C1O5 (some centres not stated)
Second: CC1(c2ccc3ccccc3c2)NC(=O)N(CC(=O)N2CCN(Cc3ccc(C#N)cc3)CC2)C1=O (configuration not stated)
The IC50 of the first is 41-fold higher: 8.71 µM for the first, 0.21 µM for the second.

First: O=C(CCl)N1CCCC1c1ccc2c(c1)OCCO2 (configuration not stated)
Second: O=C(NCCc1ccccc1)c1ccc2c(c1)OCCCO2
The IC50 of the first is 10-fold higher: 9.33 µM for the first, 0.9 µM for the second.

First: COc1ccc(CCNc2ncnc3sc(C)cc23)cc1OC
Second: C#CC(=O)N(c1ccc(OC)c(OC)c1)C(C(=O)NC1CCCC1)c1cccs1 (configuration not stated)
The IC50 of the first is lower: less than 0.16 µM for the first, 4.77 µM for the second.

First: C[C@@H]1O[C@@H](O[C@@H]2C=C3CC[C@@H]4C(CC[C@]5(C)[C@@H](c6ccc(=O)oc6)CC[C@]45O)[C@@]3(C)CC2)[C@H](O)[C@H](O)[C@H]1O (some centres not stated)
Second: C=C1C(O)[C@@H]2O[C@]3(CC[C@H](/C=C/C(C)[C@@H]4CC(C)=CC5(O[C@H](C[C@@](C)(O)C(=O)O)CCC5O)O4)O3)CC[C@H]2O[C@@H]1C(O)CC(C)[C@H]1OC2(CCCCO2)CCC1C (some centres not stated)
The IC50 of the first is lower: less than 0.16 µM for the first, 0.31 µM for the second.

First: Cc1ccc2nc(NC(=O)CCCC(=O)O)sc2c1
Second: CCOc1ccc(NC(=O)Nc2cccc(C(=O)O)c2)cc1
The IC50 of the first is 1.7-fold higher: 3.13 µM for the first, 1.85 µM for the second.

`Nc1ncnc2c1ccn2[C@@H]1O[C@H](CO)[C@@H](O)[C@H]1O` and `Nc1nc(F)nc2c1ncn2[C@@H]1O[C@H](CO)[C@@H](O)[C@H]1O` are within 1.5-fold of each other in IC50: 7.42 µM for the first, 7.24 µM for the second.

Compared with `NC1=NC[C@H](Cc2ccc(O)cc2)N1CCCCC1CCCCC1`, `Cc1cc(Cl)c(S(=O)(=O)N2CCN(c3ccc(F)cc3)CC2)cc1OCC(=O)NC1CCCCC1` is lower in IC50: 12.9 µM for the first, less than 0.16 µM for the second. The second is the more potent here.

Compared with `COc1ccc(NS(=O)(=O)c2cccc(NC(=O)c3ccc(Cl)nc3)c2)cc1`, `COc1cccc(NC(=O)Nc2cccc(C(=O)O)c2)c1` is 18-fold higher in IC50: 0.31 µM for the first, 5.44 µM for the second.

First: CCOc1ccc(-n2c(-c3ccc(OC)cc3)c[n+]3c2CCCCC3)cc1
Second: COc1ccc(/C=C/c2cc(-c3ccc(C)cc3)o[n+]2C)cc1
The IC50 of the first is 6.3-fold lower: 1.06 µM for the first, 6.71 µM for the second. The first is the more potent here.

First: O=C(CN1C(=O)c2ccccc2S1(=O)=O)c1ccc2c(c1)OCCO2
Second: O=C(CN1C(=O)c2ccccc2S1(=O)=O)c1ccc2c(c1)OCCCO2
The IC50 of the first is higher: 0.2 µM for the first, less than 0.16 µM for the second.

`CCn1c(C)nc2cc(-c3nc4n(n3)Cc3ccccc3-4)ccc21` and `CCN1/C(=C/c2ccc3cc(C)ccc3[n+]2CC)Sc2ccccc21` are within 1.5-fold of each other in IC50: 0.24 µM for the first, 0.32 µM for the second.

Compared with `C=CCn1c(C)cc(C(=O)CN2C(=O)c3ccccc3S2(=O)=O)c1C`, `Cc1cc2sc3ccc(C#CC4(O)CCCCC4)cc3c(=O)c2cc1C` is lower in IC50: 0.17 µM for the first, less than 0.16 µM for the second. The second is the more potent here.

Going from `Nc1nc(Cl)nc2c1ncn2[C@H]1C[C@H](O)[C@@H](CO)O1` to `C=CC(=O)Nc1ccc(Nc2nc(NC3CCC(N(C)C)CC3)nc3c2ncn3C(C)C)cc1` (configuration not stated), the IC50 falls from 18.4 µM to 0.41 µM (45-fold). The second is the more potent here.

Going from `CC(=O)OC(C)(C)/C=C/C(=O)[C@](C)(O)C1[C@H](O)C[C@@]2(C)C3CC=C4C(C[C@H](O)C(=O)C4(C)C)[C@]3(C)C(=O)C[C@]12C` (some centres not stated) to `COC(=O)CCn1nnc(-c2ccc(C(C)C)cc2)n1`, the IC50 falls from 11.3 µM to 0.27 µM (42-fold). The second is the more potent here.

Compared with `c1ccc(-c2ccc(-c3nc(-c4ccccn4)no3)cc2)cc1`, `N=c1c2c(-c3ccccc3)c(-c3ccccc3)n(Cc3ccccc3)c2ncn1CCCn1ccnc1` is 4.1-fold higher in IC50: 1.69 µM for the first, 6.97 µM for the second. The first is the more potent here.

With `COc1cc2nc(NC(=O)c3ccccc3)sc(=O)c2cc1OC` the IC50 was > 80 µM (inactive).
With `COc1ccc(OC)c(C2C3=C(COC3=O)Nc3cc4c(cc32)OCO4)c1` (configuration not stated) the IC50 was > 80 µM (inactive).
With `Cc1ccc(C(=O)Nc2cccc(C(F)(F)F)c2)cc1NC(=O)c1ccno1` the IC50 was > 80 µM (inactive).
With `C[C@H](NC(=O)c1nc[nH]c1C(=O)N[C@@H](C)C(=O)OCc1ccccc1)C(=O)OCc1ccccc1` the IC50 was > 80 µM (inactive).
`N=c1ccn2c(n1)O[C@H]1[C@@H](CO)[C@H](O)O[C@H]12` was tested, and the IC50 was > 80 µM (inactive).
For `COc1cc(/C=N/NC(=S)Nc2cccc(C(=O)O)c2)ccc1O`, the IC50 was 23.4 µM (inactive).
With `c1ccc2sc(Sc3ncnc4sccc34)nc2c1` the IC50 was 21.4 µM (inactive).
In the case of `COc1cccc2c1C(=O)c1c(O)c3c(c(O)c1C2=O)C[C@@](O)(C(=O)CO)C[C@@H]3O[C@H]1C[C@H](N)[C@@H](O)[C@H](C)O1`, the IC50 is reported as > 80 µM (inactive).
`CCCCCNC(=O)c1ccc2c(=O)n(CC3CCCO3)c(=O)[nH]c2c1` (configuration not stated) was tested, and the IC50 was > 80 µM (inactive).
`O=C(NCCNCCO)C1(C(F)(F)F)C/C(=C\CCO)CCCO1` (configuration not stated) was tested, and the IC50 was > 80 µM (inactive).

Reference: PubChem BioAssay AID489020 (Sanford-Burnham Center for Chemical Genomics, 2010)
